ChEMBL document CHEMBL1201862, “PubChem BioAssay data set” (2004)
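Following 48 hours of exposure in 96-well plates, responses at five concentrations were used to interpolate endpoints linearly. GI50 marks 50% less growth.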 The source made the active and inactive calls. Rule as the data show it: active = GI50 up to about 1.1 µM and inactive = higher.

Legend:
Assay in all cases: growth of human tumour cells (NCI), 48 h
A549 = test system: A549
CCRF-CEM = test system: CCRF-CEM
HCC 2998 = test system: HCC 2998
HCT-116 = test system: HCT-116
HCT-15 = test system: HCT-15
HL-60 = test system: HL-60
IGROV-1 = test system: IGROV-1
NCI-H460 = test system: NCI-H460
OVCAR-3 = test system: OVCAR-3
RXF 393 = test system: RXF 393
SF-268 = test system: SF-268
SF-295 = test system: SF-295
SF-539 = test system: SF-539
SK-MEL-28 = test system: SK-MEL-28
SNB-19 = test system: SNB-19
SW-620 = test system: SW-620
U-251 = test system: U-251
UACC-62 = test system: UACC-62
UO-31 = test system: UO-31
NCI-H522 = test system: NCI-H522

COc1ccc(Sc2ccccc2N)cc1
GI50 (A549): 55 µM (inactive)
GI50 (CCRF-CEM): 14.4 µM (inactive)
GI50 (HCC 2998): 41 µM (inactive)
GI50 (HCT-116): 49 µM (inactive)
GI50 (HCT-15): 37 µM
GI50 (HL-60): 18.8 µM (inactive)
GI50 (IGROV-1): 65.2 µM (inactive)
GI50 (NCI-H460): 52.5 µM (inactive)
GI50 (OVCAR-3): 29.1 µM (inactive)
GI50 (RXF 393): 25.5 µM (inactive)
GI50 (SF-268): 43.1 µM (inactive)
GI50 (SF-295): 39.3 µM (inactive)
GI50 (SF-539): 29.6 µM (inactive)
GI50 (SK-MEL-28): 43.4 µM (inactive)
GI50 (SNB-19): > 100 µM (inactive)
GI50 (SW-620): 57.1 µM (inactive)
GI50 (U-251): 19 µM (inactive)
GI50 (UACC-62): 71.4 µM (inactive)
GI50 (UO-31): 21.8 µM (inactive)

O=C1Oc2ccc([N+](=O)[O-])cc2N/C1=C\C(=O)c1ccccc1
GI50 (A549): > 100 µM (inactive)
GI50 (CCRF-CEM): 43.5 µM (inactive)
GI50 (HCC 2998): 28.1 µM (inactive)
GI50 (HCT-116): > 100 µM (inactive)
GI50 (HCT-15): > 100 µM
GI50 (HL-60): 62.4 µM (inactive)
GI50 (IGROV-1): > 100 µM (inactive)
GI50 (NCI-H460): > 100 µM (inactive)
GI50 (NCI-H522): 76.2 µM (inactive)
GI50 (OVCAR-3): > 100 µM (inactive)
GI50 (RXF 393): > 100 µM (inactive)
GI50 (SF-268): > 100 µM (inactive)
GI50 (SF-295): > 100 µM (inactive)
GI50 (SK-MEL-28): > 100 µM (inactive)
GI50 (SNB-19): > 100 µM (inactive)
GI50 (SW-620): > 100 µM (inactive)
GI50 (U-251): 78.5 µM (inactive)
GI50 (UACC-62): > 100 µM (inactive)
GI50 (UO-31): > 100 µM (inactive)

COC(=O)C1CCC(=O)N1/C(C)=N/NC(=O)Nc1ccc(Cl)c(Cl)c1 (stereo not given)
GI50 (A549): > 100 µM (inactive)
GI50 (CCRF-CEM): > 100 µM (inactive)
GI50 (HCC 2998): > 100 µM (inactive)
GI50 (HCT-116): > 100 µM (inactive)
GI50 (HCT-15): 14.4 µM
GI50 (HL-60): > 100 µM (inactive)
GI50 (IGROV-1): > 100 µM (inactive)
GI50 (NCI-H460): > 100 µM (inactive)
GI50 (OVCAR-3): > 100 µM (inactive)
GI50 (RXF 393): > 100 µM (inactive)
GI50 (SF-268): 69.5 µM (inactive)
GI50 (SF-295): > 100 µM (inactive)
GI50 (SF-539): > 100 µM (inactive)
GI50 (SK-MEL-28): > 100 µM (inactive)
GI50 (SNB-19): > 100 µM (inactive)
GI50 (SW-620): > 100 µM (inactive)
GI50 (U-251): > 100 µM (inactive)
GI50 (UACC-62): 10.5 µM (inactive)
GI50 (UO-31): > 100 µM (inactive)

CN1CC=C(c2cccn2C)CC1
GI50 (A549): > 100 µM (inactive)
GI50 (CCRF-CEM): > 100 µM (inactive)
GI50 (HCC 2998): > 100 µM (inactive)
GI50 (HCT-116): > 100 µM (inactive)
GI50 (HCT-15): > 100 µM
GI50 (HL-60): > 100 µM (inactive)
GI50 (IGROV-1): > 100 µM (inactive)
GI50 (NCI-H522): > 100 µM (inactive)
GI50 (OVCAR-3): > 100 µM (inactive)
GI50 (RXF 393): > 100 µM (inactive)
GI50 (SF-268): > 100 µM (inactive)
GI50 (SF-295): > 100 µM (inactive)
GI50 (SK-MEL-28): > 100 µM (inactive)
GI50 (SNB-19): > 100 µM (inactive)
GI50 (SW-620): > 100 µM (inactive)
GI50 (U-251): > 100 µM (inactive)
GI50 (UACC-62): > 100 µM (inactive)
GI50 (UO-31): > 100 µM (inactive)
